According to article PMC7251097, “Aspartate/asparagine-β-hydroxylase: a high-throughput mass spectrometric assay for discovery of small molecule inhibitors” (Scientific Reports, 2020):
Structures can show the parent of a compound that is named as a salt. Where two headings read alike, the source gives them in different places. One block for each compound: values may come before it.

Target: T1, His6-AspH315–758 (human aspartate/asparagine-β-hydroxylase, AspH) (Homo sapiens, UniProt Q12797)
T1 construct: N-Terminally His6-tagged human AspH315–758 (His6-AspH315–758) was produced in E. coli BL21 (DE3) cells; made in house; host or cells: E. coli BL21 (DE3), pET-28a(+) vector
T1 sequence (Q12797 315-758): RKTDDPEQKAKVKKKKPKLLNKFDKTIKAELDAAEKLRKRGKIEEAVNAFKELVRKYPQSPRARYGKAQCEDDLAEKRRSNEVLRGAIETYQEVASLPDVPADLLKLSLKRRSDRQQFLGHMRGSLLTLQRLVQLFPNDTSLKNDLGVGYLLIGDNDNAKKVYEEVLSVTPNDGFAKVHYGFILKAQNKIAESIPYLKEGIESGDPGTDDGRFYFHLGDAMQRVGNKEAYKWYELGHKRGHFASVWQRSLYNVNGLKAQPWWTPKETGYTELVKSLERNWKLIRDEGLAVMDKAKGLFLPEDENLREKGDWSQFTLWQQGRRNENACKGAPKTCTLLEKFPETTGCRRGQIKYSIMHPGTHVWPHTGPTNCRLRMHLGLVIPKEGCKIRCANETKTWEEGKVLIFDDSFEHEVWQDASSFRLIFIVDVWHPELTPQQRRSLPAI
Experiment: SPE-MS AspH inhibition assay (LOPAC screen at fixed 20 μM and IC50 dose-response), hydroxylation of cyclic peptide hFX-CP101–119
Format: biochemical
Conditions: for inhibition at 20 µM: read-out: Plate 2 (% inhibition)

[1] = LOPAC compound at fixed 20 uM, plate 1, normalised to DMSO and 2,4-PDCA controls
[2] = LOPAC compound at fixed 20 uM, substrate conversion, plate 1
[3] = LOPAC compound at 20uM, plate 2, conversion of substrate peptide
[4] = LOPAC compound at 20uM, plate 2, normalised to DMSO and 2,4-PDCA controls
[5] = LOPAC compound at 20uM, plate 3, conversion of substrate peptide
[6] = LOPAC Plate 4, compound at 20 uM, substrate conversion
[7] = LOPAC Plate 4, compound at 20 uM

Structure (SMILES): CCCCC#Cc1nc(NC)c2ncn([C@@H]3O[C@H](CO)[C@@H](O)[C@H]3O)c2n1 [HEMADO]
Plate 1 (% inhibition) [1]: 20.82% | Plate 1 (% conversion) [2]: 28.88%

Structure (SMILES): Cc1nccc2c1[nH]c1ccccc12 [Harmane]
Plate 2 (% conversion): 35.31% | inhibition at 20 µM: 1.92%

Structure (SMILES): C[N+](C)(C)CCCCCC[N+](C)(C)C [Hexamethonium bromide]
Plate 2 (% conversion): 40.56% | inhibition at 20 µM: -13.8%

Structure (SMILES): C[N+](C)(C)CCCCCC[N+](C)(C)C.[Cl-].[Cl-] [Hexamethonium dichloride]
Plate 2 (% conversion): 37.53% | Plate 2 (% inhibition) (20 µM): -4.72%

Structure (SMILES): NCCc1c[nH]cn1 [Histamine dihydrochloride]
Plate 2 (% conversion) [3]: 39.28% | inhibition at 20 µM [4]: -9.92%

Structure (SMILES): NNc1nncc2ccccc12 [Hydralazine hydrochloride]
Plate 2 (% conversion) [3]: 38.20% | inhibition at 20 µM [4]: -6.7%

Structure (SMILES): COc1cc(OC)c(C=C2C(O)=Nc3ccccc32)c(OC)c1 [IC 261]
% conversion: 29.42%

Structure (SMILES): CCCn1c(=O)c(C)cn2nc(N)nc12 [ICI 63,137]
% conversion: 30.53%

Structure (SMILES): COc1ccc(/C=C2\COc3ccc(C)cc3C2=O)cc1O [IMS2186]
% conversion [6]: 32.74%

Structure (SMILES): CCCCCN(C)CCC(O)(P(=O)([O-])O)P(=O)(O)O.[Na+] [Ibandronate sodium]
% conversion [6]: 30.05%

Structure (SMILES): N=C(N)SCCc1cnc[nH]1 [Imetit dihydrobromide]
Plate 3 (% conversion): 29.48%

Structure (SMILES): Cl.O=C(O)Cc1c[nH]cn1 [Imidazole-4-acetic acid hydrochloride]
Plate 2 (% conversion): 36.46% | Plate 2 (% inhibition) (20 µM): -1.52%

Structure (SMILES): C[C@@H](O)[C@H]1C(=O)N2C(C(=O)O)=C(SCCN=CN)C[C@H]12 [Imipenem monohydrate]
Plate 1 (% inhibition) [1]: 6.01% | Plate 1 (% conversion) [2]: 33.85%

Structure (SMILES): CN[C@@H]1C[C@@H](c2ccc(Cl)c(Cl)c2)c2ccccc21 [Indatraline hydrochloride]
Plate 3 (% conversion): 41.79%

Structure (SMILES): CC(C)(C)NC(=O)[C@@H]1CN(Cc2cccnc2)CCN1C[C@@H](O)C[C@@H](Cc1ccccc1)C(=O)N[C@H]1c2ccccc2C[C@H]1O.O=S(=O)(O)O [Indinavir sulfate salt hydrate]
Plate 1 (% inhibition) [1]: -10.28% | Plate 1 (% conversion) [2]: 39.32%

Structure (SMILES): NC(=O)CI [Iodoacetamide, reference compound]
Inhibition at 20 µM [%]: 102.0%

Structure (SMILES): CCC(NC(C)C)C(O)c1ccc(O)c(O)c1.CS(=O)(=O)O (stereo not shown) [Isotharine mesylate]
Plate 3 (% conversion) [5]: 6.91%

Structure (SMILES): C=C(C)[C@H]1CN[C@H](C(=O)O)[C@H]1CC(=O)O [Kainic acid]
Plate 3 (% conversion): 38.81%

Structure (SMILES): CC(=O)N1CCN(c2ccc(OCC3COC(Cn4ccnc4)(c4ccc(Cl)cc4Cl)O3)cc2)CC1 (stereo not shown) [Ketoconazole]
Plate 3 (% conversion): 46.43%

Structure (SMILES): N[C@@H](Cc1ccc(O)c(O)c1)C(=O)O [L-3,4-Dihydroxyphenylalanine]
Plate 2 (% conversion) [3]: 10.03% | Plate 2 (% inhibition) [4]: 77.43%

Structure (SMILES): Ic1ccccc1CNC1C2CCN(CC2)C1C(c1ccccc1)c1ccccc1.O=C(O)C(=O)O [L-703,606 oxalate salt hydrate]
Plate 3 (% conversion): 12.64%

Structure (SMILES): N=C(N)NCCC[C@H](N)C(=O)O [L-Arginine]
Plate 1 (% conversion): 38.11% | Plate 1 (% inhibition): -6.68%

More lines, now with the values ahead:

Plate 2 (% conversion) [3]: 3.05% | inhibition at 20 µM [4]: 98.3%
Structure (SMILES): O=c1cc(O)cc(/C=C/c2ccc(O)c(O)c2)o1 [Hispidin, reference compound]

Plate 2 (% conversion) [3]: 36.43% | inhibition at 20 µM [4]: -1.41%
Structure (SMILES): NS(=O)(=O)c1cc2c(cc1Cl)NCNS2(=O)=O [Hydrochlorothiazide]

Plate 2 (% conversion) [3]: 37.93% | inhibition at 20 µM [4]: -5.89%
Structure (SMILES): C[C@]12CCC(=O)C=C1CC[C@@H]1[C@@H]2[C@@H](O)C[C@@]2(C)[C@H]1CC[C@]2(O)C(=O)CO [Hydrocortisone]

Plate 2 (% conversion) [3]: 39.20% | Plate 2 (% inhibition) [4]: -9.70%
Structure (SMILES): Cl.NO [Hydroxylamine hydrochloride]

Plate 2 (% conversion) [3]: 37.94% | Plate 2 (% inhibition) [4]: -5.92%
Structure (SMILES): NC(=O)NO [Hydroxyurea]

Plate 3 (% conversion) [5]: 35.04%
Structure (SMILES): CNC(=O)[C@H]1O[C@@H](n2cnc3c(NCc4cccc(I)c4)ncnc32)[C@H](O)[C@@H]1O [IB-MECA]

Plate 2 (% conversion) [3]: 39.35% | Plate 2 (% inhibition) [4]: -10.13%
Structure (SMILES): Cl.Fc1ccc(CN(C2=NCCN2)c2c(Cl)cccc2Cl)cc1 [IMID-4F hydrochloride]

Inhibition at 20 µM [%] (AspH activity, fixed compound concentration 20 μM, initial LOPAC screen, 0.5%v/v DMSO): 100.0% | % conversion [6]: 2.34%
Structure (SMILES): Oc1ccc2ccccc2c1SSc1c(O)ccc2ccccc12 [IPA-3, reference compound]

% inhibition [7]: -1.55% | % conversion [6]: 37.00%
Structure (SMILES): O=C(Nc1nc2ccccc2n1CCN1CCOCC1)c1cccc([N+](=O)[O-])c1 [IRAK-1/4 Inhibitor I]

Plate 2 (% conversion) [3]: 39.05% | inhibition at 20 µM [4]: -9.26%
Structure (SMILES): CC(C)C(=O)c1c(C(C)C)nn2ccccc12 [Ibudilast]

Plate 2 (% conversion) [3]: 34.69% | inhibition at 20 µM [4]: 3.78%
Structure (SMILES): CC(=O)[C@]1(O)Cc2c(O)c3c(c(O)c2[C@@H](O[C@H]2C[C@H](N)[C@H](O)[C@H](C)O2)C1)C(=O)c1ccccc1C3=O [Idarubicin]

Plate 3 (% conversion) [5]: 39.66%
Structure (SMILES): c1ccc2c(c1)OCC(C1=NCCN1)O2 (stereo not shown) [Idazoxan hydrochloride]

Plate 3 (% conversion) [5]: 17.74%
Structure (SMILES): CC(C(O)c1ccc(O)cc1)N1CCC(Cc2ccccc2)CC1.CC(C(O)c1ccc(O)cc1)N1CCC(Cc2ccccc2)CC1.O=C(O)C(O)C(O)C(=O)O (stereo not shown) [Ifenprodil tartrate]

Plate 2 (% conversion) [3]: 38.21% | inhibition at 20 µM [4]: -6.74%
Structure (SMILES): O=C1CCC(c2ccc(-n3ccnc3)cc2)=NN1 [Imazodan]

Plate 1 (% inhibition) [1]: 11.42% | Plate 1 (% conversion) [2]: 32.04%
Structure (SMILES): O=C1Nc2ccccc2/C1=C1/Nc2ccccc2/C1=N\O [Indirubin-3-oxime]

Plate 3 (% conversion) [5]: 39.38%
Structure (SMILES): CC(C)NNC(=O)c1ccncc1.O=P(O)(O)O [Iproniazid phosphate]

Plate 3 (% conversion) [5]: 31.17%
Structure (SMILES): O=C(/C=C/c1ccc(O)cc1)c1ccc(O)cc1O [Isoliquiritigenin]

Plate 2 (% conversion) [3]: 12.89% | Plate 2 (% inhibition) [4]: 68.90%
Structure (SMILES): O=C1c2ccccc2C(=O)c2c(NCCc3ccc(O)cc3)ccc(NCCc3ccc(O)cc3)c21 [JFD00244]

IC50 (50 nM His6-AspH315–758, 1.0 μM hFX-CP101–119, 3 μM 2OG, 2 μM Fe(II), 50 mM HEPES pH 7.5, 20 °C, mean ± SD, n = 2 (2,4-PDCA n = 10), read-out: IC50): 4.24 ± 0.3 µM
Structure (SMILES): Clc1ccc(N/N=C(\c2ccccc2)c2ccccn2)nc1 [JIB-04, reference compound]

Plate 2 (% conversion) [3]: 45.70% | Plate 2 (% inhibition) [4]: -29.09%
Structure (SMILES): COc1cc(SC)ccc1C(=O)N1CCC(Cc2ccccc2)CC1 [JX401]

% inhibition [7]: -22.55% | % conversion [6]: 44.17%
Structure (SMILES): N=C(N)SCCc1ccc(OCc2ccc([N+](=O)[O-])cc2)cc1 [KB-R7493]

Plate 3 (% conversion) [5]: 35.01%
Structure (SMILES): O=C1Cc2c([nH]c3ccc(Br)cc23)-c2ccccc2N1 [Kenpaullone]

% conversion [6]: 19.47%
Structure (SMILES): O=C(c1ccc(F)cc1)C1CCN(CCn2c(=O)[nH]c3ccccc3c2=O)CC1 [Ketanserin tartrate]

Plate 3 (% conversion) [5]: 34.58%
Structure (SMILES): CC(C(=O)O)c1cccc(C(=O)c2ccccc2)c1 (stereo not shown) [Ketoprofen]

Plate 3 (% conversion) [5]: 36.01%
Structure (SMILES): NC(CO)(CO)CO.O=C(c1ccccc1)c1ccc2n1CCC2C(=O)O (stereo not shown) [Ketorolac tris salt]

Plate 1 (% inhibition) [1]: 89.51% | Plate 1 (% conversion) [2]: 5.81%
Structure (SMILES): NC[C@H](O)c1ccc(O)c(O)c1.O=C(O)C(O)C(O)C(=O)O [L(-)-Norepinephrine bitartrate]

Plate 1 (% inhibition) [1]: -2.85% | Plate 1 (% conversion) [2]: 36.83%
Structure (SMILES): N[C@@H](CCCC(=O)O)C(=O)O [L-2-aminoadipic acid]

Plate 1 (% inhibition) [1]: -3.19% | Plate 1 (% conversion) [2]: 36.94%
Structure (SMILES): N[C@@H](CC(=O)O)C(=O)O [L-Aspartic acid]
